Laboratory results published in PubChem BioAssay AID248 (DTP/NCI, 2004).
Where “and” joins values, the source holds several entries; their conditions need not be identical. Equal entries are not always repeated. Inconclusive results and toxic doses are left out. Rule as the data show it: active = T/C of 150% or more; inactive = T/C below 125%.

Tested on: L1210 leukemia ip in BDF1 mice, survival T/C
Test: NCI In Vivo Anticancer Drug Screen. Data for tumor model L1210 Leukemia (intraperitoneal) in B6D2F1 (BDF1) mice
Conditions: endpoint: mean survival time, higher = longer survival
Method in brief: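 Survival endpoint. Drug-treated group vs vehicle group, expressed as T divided by C. Tumor passaged by transplantation.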

[1] = dose: 100.0 mg/kg/injection, schedule: Q01DX001 (ip), vehicle: Klucel (hydroxypropylcellulose) (HPC)
[2] = dose: 200.0 mg/kg/injection, schedule: Q01DX001 (ip), vehicle: Klucel (hydroxypropylcellulose) (HPC)
[3] = dose: 400.0 mg/kg/injection, schedule: Q01DX001 (ip), vehicle: Klucel (hydroxypropylcellulose) (HPC)
[4] = dose: 100.0 mg/kg/injection, schedule: Q01DX001 (ip), vehicle: saline
[5] = dose: 200.0 mg/kg/injection, schedule: Q01DX001 (ip), vehicle: saline
[6] = dose: 400.0 mg/kg/injection, schedule: Q01DX001 (ip), vehicle: saline
[7] = dose: 100.0 mg/kg/injection, schedule: Q01DX009 (ip), vehicle: Klucel (hydroxypropylcellulose) (HPC)
[8] = dose: 100.0 mg/kg/injection, schedule: Q04DX003 (ip), vehicle: Klucel (hydroxypropylcellulose) (HPC)
[9] = dose: 200.0 mg/kg/injection, schedule: Q01DX009 (ip), vehicle: Klucel (hydroxypropylcellulose) (HPC)
[10] = dose: 200.0 mg/kg/injection, schedule: Q04DX003 (ip), vehicle: Klucel (hydroxypropylcellulose) (HPC)
[11] = dose: 400.0 mg/kg/injection, schedule: Q01DX009 (ip), vehicle: Klucel (hydroxypropylcellulose) (HPC)
[12] = dose: 400.0 mg/kg/injection, schedule: Q04DX003 (ip), vehicle: Klucel (hydroxypropylcellulose) (HPC)
[13] = dose: 100.0 mg/kg/injection, schedule: Q01DX009 (ip), vehicle: saline with Tween-80
[14] = dose: 200.0 mg/kg/injection, schedule: Q01DX009 (ip), vehicle: saline with Tween-80
[15] = dose: 400.0 mg/kg/injection, schedule: Q01DX001 (ip), vehicle: carboxymethylcellulose (CMC)
[16] = dose: 100.0 mg/kg/injection, schedule: Q04DX002 (ip), vehicle: saline with Tween-80
[17] = dose: 200.0 mg/kg/injection, schedule: Q04DX002 (ip), vehicle: saline with Tween-80
[18] = dose: 400.0 mg/kg/injection, schedule: Q04DX002 (ip), vehicle: saline with Tween-80
[19] = dose: 100.0 mg/kg/injection, schedule: Q04DX002 (ip), vehicle: Klucel (hydroxypropylcellulose) (HPC)
[20] = dose: 200.0 mg/kg/injection, schedule: Q04DX002 (ip), vehicle: Klucel (hydroxypropylcellulose) (HPC)
[21] = dose: 400.0 mg/kg/injection, schedule: Q04DX002 (ip), vehicle: Klucel (hydroxypropylcellulose) (HPC)

Measured: T/C

NC(=O)Cc1ccccc1N
inactive: [1] 98 % of control | [2] 114 % of control | [3] 98 % of control

CC(=O)c1ccc(C)c2ccccc12
inactive: [4] 101 % of control | [5] 102 % of control | [6] 95 % of control

Cc1ccc(S(=O)(=O)OCCN(CCOS(=O)(=O)c2ccc(C)cc2)S(=O)(=O)c2ccc(C)cc2)cc1
inactive: [7] 94 % of control | [8] 94 % of control | [9] 89 % of control | [10] 91 % of control | [11] 96 % of control | [12] 91 % of control

CCOC(=O)CC(C)(O)C1CC1 (centres undefined)
inactive: dose: 100.0 mg/kg/injection, schedule: Q04DX003 (ip), vehicle: saline with Tween-80 98 % of control | dose: 200.0 mg/kg/injection, schedule: Q04DX003 (ip), vehicle: saline with Tween-80 96 % of control | dose: 400.0 mg/kg/injection, schedule: Q04DX003 (ip), vehicle: saline with Tween-80 98 % of control

c1ccc(Pc2ccccc2)cc1
inactive: dose: 100.0 mg/kg/injection, schedule: Q01DX001 (ip), vehicle: saline with Tween-80 103 % of control | [13] 93 % of control | dose: 200.0 mg/kg/injection, schedule: Q01DX001 (ip), vehicle: saline with Tween-80 105 % of control | [14] 98 % of control | dose: 400.0 mg/kg/injection, schedule: Q01DX001 (ip), vehicle: saline with Tween-80 104 % of control

Oc1ccccc1CNc1ccccc1
inactive: [8] 96 % of control | [10] 94 % of control | [12] 96 % of control

CNC(=S)N/N=C/c1ccc2c(c1)CCC2
inactive: [8] 100 % of control | [10] 100 % of control | [12] 91 % of control

O=C(NCCNC(=O)C(Cl)(Cl)Cl)C(Cl)(Cl)Cl
inactive: [7] 89 % of control | [9] 91 % of control | [11] 87 % of control

CC(=N/NC(N)=S)/C(C)=N/NC(N)=S
inactive: dose: 15.0 mg/kg/injection, schedule: Q01DX Z (ip), vehicle: carboxymethylcellulose (CMC) 97 % of control | dose: 30.0 mg/kg/injection, schedule: Q01DX Z (ip), vehicle: carboxymethylcellulose (CMC) 97 % of control | dose: 50.0 mg/kg/injection, schedule: Q01DX001 (ip), vehicle: carboxymethylcellulose (CMC) 95 % of control | dose: 60.0 mg/kg/injection, schedule: Q01DX Z (ip), vehicle: carboxymethylcellulose (CMC) 101 % of control and 91 % of control | dose: 100.0 mg/kg/injection, schedule: Q01DX001 (ip), vehicle: carboxymethylcellulose (CMC) 87 % of control | [4] 110 % of control | dose: 100.0 mg/kg/injection, schedule: Q01DX009 (ip), vehicle: saline 91 % of control | dose: 100.0 mg/kg/injection, schedule: Q04DX003 (ip), vehicle: saline 98 % of control | dose: 120.0 mg/kg/injection, schedule: Q01DX Z (ip), vehicle: carboxymethylcellulose (CMC) 95 % of control | dose: 200.0 mg/kg/injection, schedule: Q01DX001 (ip), vehicle: carboxymethylcellulose (CMC) 87 % of control | [5] 106 % of control | dose: 200.0 mg/kg/injection, schedule: Q01DX009 (ip), vehicle: saline 88 % of control | dose: 200.0 mg/kg/injection, schedule: Q04DX003 (ip), vehicle: saline 86 % of control | dose: 240.0 mg/kg/injection, schedule: Q01DX Z (ip), vehicle: carboxymethylcellulose (CMC) 93 % of control | dose: 240.0 mg/kg/injection, schedule: Q01DX Z (oral), vehicle: carboxymethylcellulose (CMC) 105 % of control | [15] 89 % of control | [6] 101 % of control | dose: 400.0 mg/kg/injection, schedule: Q01DX009 (ip), vehicle: saline 93 % of control | dose: 400.0 mg/kg/injection, schedule: Q04DX003 (ip), vehicle: saline 91 % of control | dose: 480.0 mg/kg/injection, schedule: Q01DX Z (ip), vehicle: carboxymethylcellulose (CMC) 87 % of control | dose: 480.0 mg/kg/injection, schedule: Q01DX Z (oral), vehicle: carboxymethylcellulose (CMC) 102 % of control | dose: 960.0 mg/kg/injection, schedule: Q01DX Z (oral), vehicle: carboxymethylcellulose (CMC) 102 % of control | dose: 1920.0 mg/kg/injection, schedule: Q01DX Z (oral), vehicle: carboxymethylcellulose (CMC) 111 % of control

c1ccc(-c2ccccn2)nc1
inactive: [16] 107 % of control | [17] 101 % of control | [18] 114 % of control

CC12CC(=O)OC1(C)C1CCC2C1 (centres undefined)
inactive: dose: 6.25 mg/kg/injection, schedule: Q01DX009 (ip), vehicle: acetone 111 % of control | dose: 6.25 mg/kg/injection, schedule: Q04DX003 (ip), vehicle: acetone 101 % of control | dose: 12.5 mg/kg/injection, schedule: Q01DX001 (ip), vehicle: acetone 96 % of control | dose: 12.5 mg/kg/injection, schedule: Q01DX009 (ip), vehicle: acetone 92 % of control | dose: 12.5 mg/kg/injection, schedule: Q04DX003 (ip), vehicle: acetone 101 % of control | dose: 25.0 mg/kg/injection, schedule: Q01DX001 (ip), vehicle: acetone 112 % of control | dose: 25.0 mg/kg/injection, schedule: Q04DX003 (ip), vehicle: acetone 97 % of control

CCOC(=O)CCc1cc2cc(C)nnc2[nH]1
inactive: [19] 95 % of control | [20] 91 % of control | [21] 106 % of control

O=C(CCl)OC1CCCCC1
inactive: [13] 105 % of control | [14] 97 % of control

O=C(O)CC1C=CCC1 (centres undefined)
inactive: dose: 25.0 mg/kg/injection, schedule: Q04DX003 (ip), vehicle: saline 90 % of control

O=c1c(N=Nc2ccc(Cl)cc2)c(O)n(-c2ccc(I)cc2)c(=S)n1-c1ccccc1
inactive: [1] 93 % of control | [2] 104 % of control | [3] 102 % of control

C=CCOc1nc(SC)ncc1C(=O)O
inactive: [1] 97 % of control | [2] 97 % of control | [3] 91 % of control

C[CH2][Sn](=[S])[S][Sn](=[S])[CH2]C
inactive: [16] 102 % of control | [17] 94 % of control | [18] 97 % of control

CC(=O)OC(C1SCCCS1)C1CC2C=CC1C2 (centres undefined)
inactive: [19] 115 % of control | [20] 91 % of control | [21] 105 % of control

CCCC(=O)Nc1ccn(C2OC(COC(=O)CCC)C(OC(=O)CCC)C2OC(=O)CCC)c(=O)n1 (centres undefined)
inactive: dose: 177.0 mg/kg/injection, schedule: Q01DX001 (ip), vehicle: carboxymethylcellulose (CMC) 101 % of control | dose: 266.0 mg/kg/injection, schedule: Q01DX001 (ip), vehicle: carboxymethylcellulose (CMC) 116 % of control | [15] 117 % of control

Cc1c(Cl)cccc1NC(=O)OC(C)C
inactive: [8] 106 % of control | [10] 97 % of control | [12] 97 % of control

COc1ccc(C(CC(=O)c2ccc3c(c2)OCO3)C(=O)O)cc1OC (centres undefined)
inactive: [7] 93 % of control | [8] 100 % of control | [9] 98 % of control | [10] 96 % of control | [11] 93 % of control | [12] 93 % of control

O=S(=O)(CCCc1ccccc1)c1ccccc1
inactive: dose: 50.0 mg/kg/injection, schedule: Q01DX001 (ip), vehicle: other 102 % of control | dose: 100.0 mg/kg/injection, schedule: Q01DX001 (ip), vehicle: other 102 % of control | [8] 98 % of control | dose: 200.0 mg/kg/injection, schedule: Q01DX001 (ip), vehicle: other 104 % of control | [10] 100 % of control | dose: 400.0 mg/kg/injection, schedule: Q01DX001 (ip), vehicle: other 116 % of control | [12] 102 % of control
